Assay [1] deals with 8505C cells. Put plainly: SRB cell viability assay in ATC cells. The class given is cell-based, human. Particulars: 8505C ATC cells; indicated concentrations, 48 hours. As for the experimental part:
In Vitro Cell Staining for Measuring Drug Efficacy—Thyroid cells (4.0×10^3) were seeded in 96 well plates with 100 μl CTM and allowed to adhere overnight. 100 μl of CTM containing 2× concentration of compound was overlayed in each well for 48 hours unless otherwise indicated. Each well then received 100 μl of 10% w/v cold trichloroacetic acid (Fisher) and incubated at 4° C. for 1 hour to fix the cells. Each well was rinsed 3× with DI H2O and stained with 100 μl 0.057% w/v sulforhodamine B (SRB, Sigma-Aldrich) for 30 minutes at room temperature in the dark. Wells were washed 4× with 300 μl 1% v/v acetic acid (Fisher), and remaining SRB stain was solubilized with 200 μl of 10 mM Tris buffer, pH 10.5 (Fisher). Absorbance was measured at 564 nm with a Synergy 2 Multi-Detection Microplate Reader (Agilent Technologies) and normalized to a vehicle control. Drug synergy was evaluated using the coefficient of drug interaction (CDI) formula: CDI=AB/(A×B)×100, where AB is the percent remaining cells of an indicated combination treatment, A is the average percent remaining cells of agent 1 alone, and B is the average percent remaining cells of agent 2 alone. […] Hao et al., “Effect of Lumiracoxib on Proliferation and Apoptosis of Human Nonsmall Cell Lung Cancer Cells In vitro,” Chin Med J (Engl) 121:602-607 (2008), which is hereby incorporated by reference in its entirety. […]

In assay [2] the test system is 8505C cells. Put plainly: Glycogen content (colorimetric assay, TEM) in ATC cells. The class given is cell-based, human. Particulars: for glycogen content: 8505C cells, overnight treatment. The protocol:
Transmission Electron Microscopy of Glycogen Deposits—Cells were seeded in 10 cm dishes and allowed to adhere overnight. […] Cells were then rinsed with PBS and lifted with trypsin for preparation for TEM as described previously. Thwe et al., “Cell-intrinsic Glycogen Metabolism Supports Early Glycolytic Reprogramming Required for Dendritic Cell Immune Responses,” Cell Metabolism 26:558-567.e555 (2017), which is hereby incorporated by reference in its entirety.
PYGB RNA Interference—For validating successful PYGB knockdown, 4.0×10^4 cells were plated in 12 well plates containing 0.2% Lipofectamine™ 3000 Transfection Reagent and the indicated concentration of siRNA targeting PYGB or control siRNA in 1 ml CTM. RNA was extracted 72 hours later for RT-qPCR analysis and protein was extracted 96 hours later for immunoblotting. For measuring the effect of PYGB knockdown on cell viability, 1.0×10^3 cells were seeded in 96 well plates with 0.15% Lipofectamine™ 3000 Transfection Reagent and the indicated concentration of siRNA targeting PYGB or control siRNA in 200 μl CTM for 7 days before conducting the SRB assay. For measuring the effect of PYGB knockdown on glycogen content, 6.5×10^5 cells were seeded in 10 cm dishes with 0.2% Lipofectamine™ 3000 Transfection Reagent and the indicated concentration of siRNA targeting PYGB or control siRNA in 10 ml CTM for 4 days preceding cell lysis for glycogen determination.
Quantification of Levels of Glycogen, Glucose-1-Phosphate, Glucose-6-Phosphate, Lactate, ATP, Glucose, NADPH, and Glutathione—Briefly, cells were seeded in 10 cm dishes (for measuring glycogen and NADPH), 6 well plates (GIP, G6P, lactate, glucose, and glutathione), or 96 well plates (ATP) and allowed to adhere overnight. CTM was aspirated and cells were rinsed with PBS before application of compounds dissolved in CTM for 24 hours, at which point cells were ~90% confluent. CTM was then aspirated, cells were rinsed with PBS, and lysed according to the respective manufacturer protocol (see Table 4) for metabolite analysis.

For the next assay, the system named is OCUT-2 cells. The experiment in a line: SRB cell viability assay in OCUT-2 cells. The class given is cell-based, human. Particulars: indicated concentrations, 48 hours. As for the experimental part:
In Vitro Cell Staining for Measuring Drug Efficacy—Thyroid cells (4.0×10^3) were seeded in 96 well plates with 100 μl CTM and allowed to adhere overnight. 100 μl of CTM containing 2× concentration of compound was overlayed in each well for 48 hours unless otherwise indicated. Each well then received 100 μl of 10% w/v cold trichloroacetic acid (Fisher) and incubated at 4° C. for 1 hour to fix the cells. Each well was rinsed 3× with DI H2O and stained with 100 μl 0.057% w/v sulforhodamine B (SRB, Sigma-Aldrich) for 30 minutes at room temperature in the dark. Wells were washed 4× with 300 μl 1% v/v acetic acid (Fisher), and remaining SRB stain was solubilized with 200 μl of 10 mM Tris buffer, pH 10.5 (Fisher). Absorbance was measured at 564 nm with a Synergy 2 Multi-Detection Microplate Reader (Agilent Technologies) and normalized to a vehicle control. Drug synergy was evaluated using the coefficient of drug interaction (CDI) formula: CDI=AB/(A×B)×100, where AB is the percent remaining cells of an indicated combination treatment, A is the average percent remaining cells of agent 1 alone, and B is the average percent remaining cells of agent 2 alone. […] Hao et al., “Effect of Lumiracoxib on Proliferation and Apoptosis of Human Nonsmall Cell Lung Cancer Cells In vitro,” Chin Med J (Engl) 121:602-607 (2008), which is hereby incorporated by reference in its entirety.

The test system of assay [3] is mouse embryonic fibroblasts. Particulars: cited from earlier work.
The conditions of assay [4]: cited from earlier work.
The next assay has as its target T1, purified GYS1 (Homo sapiens, UniProt P13807).
T1 sequence (P13807 1-737): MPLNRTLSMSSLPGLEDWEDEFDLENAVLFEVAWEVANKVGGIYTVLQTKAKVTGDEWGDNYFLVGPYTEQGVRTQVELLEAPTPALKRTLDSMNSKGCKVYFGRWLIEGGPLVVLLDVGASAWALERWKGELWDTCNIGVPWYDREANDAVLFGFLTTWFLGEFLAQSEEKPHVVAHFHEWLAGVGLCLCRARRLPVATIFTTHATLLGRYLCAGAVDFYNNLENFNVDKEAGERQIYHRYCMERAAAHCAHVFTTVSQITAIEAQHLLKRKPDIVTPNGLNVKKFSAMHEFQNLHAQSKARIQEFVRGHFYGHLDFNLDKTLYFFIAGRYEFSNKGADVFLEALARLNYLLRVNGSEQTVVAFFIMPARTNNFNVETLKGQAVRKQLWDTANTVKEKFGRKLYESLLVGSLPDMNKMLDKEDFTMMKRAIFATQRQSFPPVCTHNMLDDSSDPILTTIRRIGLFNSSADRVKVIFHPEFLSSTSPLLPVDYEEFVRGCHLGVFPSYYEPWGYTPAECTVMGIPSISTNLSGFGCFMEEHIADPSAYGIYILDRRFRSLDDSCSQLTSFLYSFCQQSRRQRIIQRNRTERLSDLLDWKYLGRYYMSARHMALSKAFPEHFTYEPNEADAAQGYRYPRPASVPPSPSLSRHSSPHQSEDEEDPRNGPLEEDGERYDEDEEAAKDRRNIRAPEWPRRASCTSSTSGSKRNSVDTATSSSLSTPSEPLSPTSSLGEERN
Particulars: cited from earlier work.

Another assay relates to cell lysates. Particulars: cited from earlier work.

“Also recorded” adds a separate entry of the source.

Consider `COc1ccccc1O` [guaiacol], for which the “cell viability (SRB assay)” value in the assay with 8505C cells [1] and in the assay with OCUT-2 cells was “decrease ATC cell viability” each time. In the assay with 8505C cells [2], the glycogen content entry is “decrease”. The “decrease of glycogen stores” value in the assay on 8505C cells [2] (ATC cells, stated as comparable to the literature value) is listed as around 50%; in assay [3], 50%.
As for `CON(C)C(=O)[C@H](O)[C@H](Cc1ccccc1)NC(=O)c1cc2cc(Cl)ccc2[nH]1` [CP316819, 5-chloro-N-[(2S,3R)-3-hydroxy-4-[methoxy(methyl)amino]-4-oxo-1-phenylbutan-2-yl]-1H-indole-2-carboxamide], the “cell viability (SRB assay)” value with 8505C cells [1] is recorded as “sensitive; also recorded: limited cell viability”. The glycogen content result with 8505C cells [2] is “increased the glycogen content”. The “glycogen storage in rat brains” value in assay [4] was “enhanced glycogen storage in rat brains”.
As to `Oc1ccc(-c2c(-c3ccc(O)c(O)c3O)n[nH]c2C(F)(F)F)cc1` [yGsy2p-IN-1], on purified GYS1, the “inhibition of purified GYS1” value is reported as “robustly inhibited purified GYS1”. In the assay on 8505C cells [1], the “cell viability (SRB assay)” value is listed as “limit ATC viability; also recorded: limited cell viability in ATC cells”. For the same compound, the glycogen content entry in the assay on 8505C cells [2] is recorded as “decrease glycogen content; also recorded: successfully reduced glycogen levels”. Moreover, the 14C-glucose incorporation entry in the assay with cell lysates was “decreased 14C-glucose incorporation in cell lysates”.

The values are drawn from patent US20260199289A1, “USE OF GLYCOGEN METABOLISM INHIBITORS FOR THE TREATMENT OF CANCER” (THE UNIVERSITY OF VERMONT AND STATE AGRICULTURAL COLLEGE, priority 2022, published 2026).
